In patent US20160050923A1, “N-SUBSTITUTED ACYL-IMINO-PYRIDINE COMPOUNDS AND DERIVATIVES FOR COMBATING ANIMAL PESTS” (BASF SE, priority 2013, published 2016):

Key:
Type in all cases: in vivo
[1] = system: Nephotettix virescens; assay: Rice green leafhopper (Nephotettix virescens) test on sprayed rice seedlings; conditions: 72 h, read-out: mortality in comparison with untreated controls
Procedure: B.7 Rice Green Leafhopper (Nephotettix virescens)
(§1) Rice seedlings were cleaned and washed 24 hours before spraying. The active compounds were formulated in 50:50 acetone:water (vol:vol), and 0.1% vol/vol surfactant (EL 620) was added. Potted rice seedlings were sprayed with 5 ml test solution, air dried, placed in cages and inoculated with 10 adults. Treated rice plants were kept at about 28-29° C. and relative humidity of about 50-60%. Percent mortality was recorded after 72 hours.

[2] = system: Myzus persicae; assay: Green peach aphid (Myzus persicae) spray test on infested bell pepper plants; conditions: 120 h, read-out: mortality in comparison with untreated controls
Procedure: B.1 Green Peach Aphid (Myzus persicae)
The active compounds were formulated by a Tecan liquid handler in 100% cyclohexanone as a 10,000 ppm solution supplied in tubes. The 10,000 ppm solution was serially diluted in 100% cyclohexanone to make interim solutions. These served as stock solutions for which final dilutions were made by the Tecan in 50% acetone:50% water (v/v) into 5 or 10 ml glass vials. A nonionic surfactant (Kinetic®) was included in the solution at a volume of 0.01% (v/v). The vials were then inserted into an automated electrostatic sprayer equipped with an atomizing nozzle for application to plants/insects.
Bell pepper plants at the first true-leaf stage were infested prior to treatment by placing heavily infested leaves from the main colony on top of the treatment plants. Aphids were allowed to transfer overnight to accomplish an infestation of 30-50 aphids per plant and the host leaves were removed. The infested plants were then sprayed by an automated electrostatic plant sprayer equipped with an atomizing spray nozzle. The plants were dried in the sprayer fume hood, removed, and then maintained in a growth room under fluorescent lighting in a 24-hr photoperiod at about 25° C. and about 20-40% relative humidity. Aphid mortality on the treated plants, relative to mortality on untreated control plants, was determined after 5 days.

[3] = system: Dichromothrips corbetti; assay: Orchid thrips (Dichromothrips corbetti) floral-immersion test; conditions: 72 h, read-out: mortality in comparison with untreated controls
Procedure: B.6 Orchid Thrips (Dichromothrips corbetti)
Dichromothrips corbetti adults used for bioassay were obtained from a colony maintained continuously under laboratory conditions. For testing purposes, the test compound is diluted in a 1:1 mixture of acetone:water (vol:vol), plus 0.01% vol/vol Alkamuls® EL 620 surfactant.
Thrips potency of each compound was evaluated by using a floral-immersion technique. Plastic petri dishes were used as test arenas. All petals of individual, intact orchid flowers were dipped into treatment solution and allowed to dry. Treated flowers were placed into individual petri dishes along with about 20 adult thrips. The petri dishes were then covered with lids. All test arenas were held under continuous light and a temperature of about 28° C. for duration of the assay. After 3 days, the numbers of live thrips were counted on each flower, and along inner walls of each petri dish. The percentmortality was recorded 72 hours after treatment.

[4] = system: Aphis craccivora; assay: Cowpea aphid (Aphis craccivora) spray test on potted cowpea plants; conditions: 72 h, read-out: mortality in comparison with untreated controls
Procedure: B.4 Cowpea Aphid (Aphis craccivora)
The active compound was dissolved at the desired concentration in a mixture of 1:1 (vol:vol) distilled water: acetone. Surfactant (Alkamuls® EL 620) was added at a rate of 0.1% (vol/vol). The test solution was prepared at the day of use.
Potted cowpea plants were colonized with approximately 50-100 aphids of various stages by manually transferring a leaf tissue cut from infested plant 24 hours before application. Plants were sprayed after the pest population has been recorded. Treated plants were maintained on light carts at about 28° C. Percent mortality was assessed after 72 hours.

[5] = system: Nilaparvata lugens; assay: Rice brown plant hopper (Nilaparvata lugens) test on sprayed rice seedlings; conditions: 72 h, read-out: mortality in comparison with untreated controls
Procedure: B.8 Rice Brown Plant Hopper (Nilaparvata lugens)
as §1, with “compounds was” for “compounds were”, “acetone:water (vol:vol)” for “acetone:water (vol:vol),”

[6] = system: Megoura viciae; assay: Vetch aphid (Megoura viciae) broad bean leaf disk microtiter test; conditions: foliar, 120 h, read-out: mortality in comparison with untreated controls
Procedure: B.2 Vetch Aphid (Megoura viciae)
For evaluating control of vetch aphid (Megoura viciae) through contact or systemic means the test unit consisted of 24-well-microtiter plates containing broad bean leaf disks.
The compounds were formulated using a solution containing 75% v/v water and 25% v/v DMSO. Different concentrations of formulated compounds were sprayed onto the leaf disks at 2.5 μl, using a custom built micro atomizer, at two replications.
After application, the leaf disks were air-dried and 5-8 adult aphids were placed on the leaf disks inside the microtiter plate wells. The aphids were then allowed to suck on the treated leaf disks and were incubated at about 23±1° C. and about 50±5% relative humidity for 5 days. Aphid mortality and fecundity was then visually assessed.

CS(=O)(=O)CC(=O)N=c1ccccn1Cc1ccc(Cl)nc1 [E1-10, N-[1-[(6-chloro-3-pyridyl)methyl]-2-pyridylidene]-2-methylsulfonyl-acetamide]
≥ 75%: mortality at 500 ppm [1] | mortality at 2500 ppm [2] | mortality at 500 ppm [3] | mortality at 500 ppm [4] | mortality at 500 ppm [5] | mortality at 2500 ppm [6]

CSCC(=O)/N=c1\ccccn1Cc1ccc(Cl)nc1 [E1-9, N-[1-[(6-chloro-3-pyridyl)methyl]-2-pyridylidene]-2-methylsulfanyl-acetamide]
≥ 75%: mortality at 500 ppm [1] | mortality at 2500 ppm [2] | mortality at 500 ppm [4] | mortality at 500 ppm [5] | mortality at 2500 ppm [6]
